Series [1] relates to NSCLC squamous cell carcinoma. The note with it: one patient with history of COPD and NSCLC squamous cell carcinoma; aprepitant combined with radiotherapy; cited from earlier work.
The next series deals with Covid-19 patients. Kind of series: Randomized double-blind placebo-controlled clinical study of aprepitant injectable emulsion in Covid-19 positive patients. It is filed as in vivo, human. The note with it: aprepitant injectable emulsion (e.g., Cinvanti) daily (QD), 14 days, comparator saline placebo, including severe to critical patients.
Series [2] has as its system nociception induced by capsaicin (TRPV1) or AITC (TRPA1). The note with it: capsaicin (via TRPV1) or AITC (via TRPA1), rat peritoneum; cited from earlier work.
Another series has as its target T1, NK1R (Rattus norvegicus, UniProt P14600).
T1 construct: host or cells: living animal of an asthma model (endogenous receptor)
The note with it: asthma model; cited from earlier work.

The target of a further series is T2, Neurokinin-1 receptor (Homo sapiens, UniProt P25103).
T2 construct: host or cells: treated subjects (endogenous receptor)
The note with it: lung cancer; cited from earlier work.

The conditions of series [3]: in vivo; cited from earlier work.

T1 sequence (P14600 whole entry): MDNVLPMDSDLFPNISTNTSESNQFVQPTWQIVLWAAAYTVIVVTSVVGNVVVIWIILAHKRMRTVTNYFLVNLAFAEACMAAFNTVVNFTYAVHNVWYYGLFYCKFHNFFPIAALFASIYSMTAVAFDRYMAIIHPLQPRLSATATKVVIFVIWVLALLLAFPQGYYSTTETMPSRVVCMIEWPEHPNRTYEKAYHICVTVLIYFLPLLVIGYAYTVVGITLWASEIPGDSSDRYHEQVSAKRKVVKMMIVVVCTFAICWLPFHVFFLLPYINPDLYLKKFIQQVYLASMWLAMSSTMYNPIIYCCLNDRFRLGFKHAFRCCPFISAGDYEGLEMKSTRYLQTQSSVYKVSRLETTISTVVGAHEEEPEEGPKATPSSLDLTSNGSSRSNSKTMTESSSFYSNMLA
T2 sequence (P25103 whole entry): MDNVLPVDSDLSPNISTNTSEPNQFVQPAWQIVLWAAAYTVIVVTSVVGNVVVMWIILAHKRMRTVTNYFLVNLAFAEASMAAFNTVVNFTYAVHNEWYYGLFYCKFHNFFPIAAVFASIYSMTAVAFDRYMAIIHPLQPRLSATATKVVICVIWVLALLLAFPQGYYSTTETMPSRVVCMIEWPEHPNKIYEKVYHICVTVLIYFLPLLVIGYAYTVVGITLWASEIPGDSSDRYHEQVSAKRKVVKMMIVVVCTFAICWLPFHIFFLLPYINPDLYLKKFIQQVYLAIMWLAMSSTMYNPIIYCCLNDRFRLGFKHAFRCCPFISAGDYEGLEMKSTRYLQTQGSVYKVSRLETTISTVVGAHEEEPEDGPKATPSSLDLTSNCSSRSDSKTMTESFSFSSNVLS
Text for Covid-19 patients: One group of patients receives saline placebo daily for a desirable period of time (e.g., 14 days) with normal management and care, and the other group of patients receives aprepitant injectable emulsion (e.g., Cinvanti®) daily (QD) during the same period of time (e.g., 14 days).

As to `C[C@@H](O[C@H]1OCCN(Cc2nc(=O)[nH][nH]2)[C@H]1c1ccc(F)cc1)c1cc(C(F)(F)F)cc(C(F)(F)F)c1` [aprepitant], in series [1], the “treatment outcome of lung cancer patient” value is recorded as “successfully treated”. Besides, in the series on Covid-19 patients, the “effectiveness in treating Covid-19 patients versus placebo” value was “more effective in treating Covid-19 patients”. Moreover, the “nociception induced by capsaicin or AITC” value in series [2] is listed as “able to reduce nociception”. Further, the “lung inflammation and inflammatory cytokines” value at NK1R was “reduced lung inflammation and inflammatory cytokines”. For the same compound, the cough frequency result on Neurokinin-1 receptor is listed as “reduction in cough frequency”.
In the case of `C=C(C)[C@]12C[C@@H](C)[C@@]34O[C@](Cc5ccccc5)(O[C@@H]1[C@@H]3C=C(COC(=O)Cc1ccc(O)c(OC)c1)C[C@]1(O)C(=O)C(C)=C[C@@H]41)O2` [resiniferatoxin], the “nociception induced by capsaicin or AITC” value in series [2] is given as “able to reduce nociception”.
For the compound `C#Cc1cccc(Nc2ncnc3cc(OCCOC)c(OCCOC)cc23)c1` [erlotinib], the “adverse effects of chronic treatment” value in series [3] was “induces hypomagnesemia, thereby triggering SP-mediated oxidative/inflammation stress and mild-to-moderate cardiac dysfunction”.

Values taken from patent US20230346792A1, “COMPOSITIONS AND METHODS FOR TREATING LUNG INFLAMMATION” (Hoth Therapeutics, Inc., priority 2020, published 2023).
